Results from patent US5968763A, “Method for screening inhibitors of the enzyme which cleaves the anchor of surface proteins from gram positive bacteria” (The Rockefeller University, priority 1997, dated 1999).

System: LPXTGX cleavage enzyme (carbonate extract of D471 membranes)
Experiment: Cleavage of 125I-labeled LPSTGE synthetic peptide linked to beads (release of radiolabel) by carbonate extract of streptococcal membranes
Type: biochemical, M type 6 streptococcal strain D471 (Streptococcus pyogenes)
Details: carbonate extract of the membranes as enzyme source, FIG. 3; for cleavage activity in the presence of inhibitor: 1 mM each
Protocol: The peptide was radiolabeled with ^125 I using Iodobeads and then the labeled peptide was purified on a Sephadex G10 column and covalently linked by its N-terminal end by EDC (ethyl-3-(3 […])carbodiimide HCl) to an extended arm on a commercially available bead (3M Emphase Biospheres AB1 from Pierce, Rockford, Ill.), and the excess radiolabel removed by washing the beads with 1 M NaCl buffer.
M type 6 streptococcal strain D471 was treated with 0.1 M sodium carbonate (pH 11.5) and incubated for 30 minutes at 0° C. to extract the streptococcal membranes.
The resulting extract was mixed with the labeled beads of Example 1 (50 μl sample, 50 μl 50 mM Tris HCl (pH 8.0) with 10 mM DTT).
The carbonate extract was chromatographed on a 20 HQ perfusion chromatography column, using a Biocad Sprint instrument (Perceptive Biosystem), employing a NaCl gradient from 0 mM to 500 mM (24.9 ml) followed by a 500 mM to 1000 mM (33.2 ml) gradient. To measure the enzyme activity found in the fractions, a 50 μl sample from each fraction was mixed in a reaction buffer in a final volume of 100 μl containing 5 mM DTT and 5 μl of the bead-substrate as described in Example 1. Control samples containing only buffer and the substrate were also mixed and incubated at 37° C. for 4 hours under constant slow rotation. The released radioactivity was then measured in 25 μl of the supernatant obtained after centrifugation. The specific activity was measured after subtracting the control values from the test samples.
FIG. 3 illustrates the enzymatic activity of the carbonate extract of the membranes (as the enzyme source) in the presence of various inhibitors and activators.

SMILES	cleavage activity in the presence of inhibitor	other results
OC(CS)C(O)CS (stereo not shown) [DTT]		enzymatic (cleavage) activity in the presence of activator (5 mM DTT): enhanced
O=C(O)c1cc[c]([Hg][OH])cc1 [PHMB, parahydroxymercuribenzoic acid]	inhibited cleavage activity	
O=S(=O)(O)c1cc[c]([Hg][OH])cc1 [PHMPS, parahydroxymercuriphenylsulfonic acid]	inhibited cleavage activity	
[Ca+2] [calcium]		enzymatic (cleavage) activity in the presence of divalent cations (divalent cations such as calcium): enhanced
